Assay results: patent US20190375791A1, “NEW D-CONFIGURED CATESLYTIN PEPTIDE” (priority 2016, published 2019)
Converted amounts (≈) assume the structure as drawn. Where a SMILES comes first, the peptide text is derived from it. [ ]: non-standard residue; d: D form.

Key:
Parvimonas micra = assay: microbe, parasite or virus in culture
Experimental: (§1) E. coli K-12 mutant E2146 was kindly provided by the Institut Pasteur of Paris. […] It is resistant to specific antibiotics, i.e. ampicillin, chloramphenicol, and kanamycin.
(§2) MIC was determined by broth microdilution. […] Experiments were performed with biological replicates.
(§3) To this aim, they determined the Fractional Inhibitory Concentration Index (FICI) of the combination between D-CTL and each antibiotic of reference.

E. coli (ATCC 25922) = assay: Resistance acquisition assay; format: cell-based, Escherichia coli; settings: E. coli wild type cultured at sub-MIC (½ MIC) concentrations, day 28
Experimental: FIG. 1: Resistance acquisition assay of E. coli in the presence of D-CTL compared to ampicillin and cefotaxim. Bacteria were cultured in the presence of ½ MIC of the antibacterial agent for […]. The fold change in MIC was evaluated at the indicated days. The graph is representative of two experiments done independently.
E. coli (ATCC® 25922™ ) strain was sequentially passaged every day in the presence of the different antibacterial compounds: D-CTL, ampicillin or cefotaxime at ½ MIC during 28 days. The changes in the MICs were determined as previously described by broth microdilution at the indicated times.

[1] = test system: Escherichia coli Amp^R Kan^RChlo^R; settings: Escherichia coli Amp^R Kan^R Chlo^R (multi-resistant), 24 hours incubation
Experimental: as §1, §2, §3

Enterococcus faecalis = format: cell-based; settings: for bacterial growth inhibition of E. faecalis: peptides at 200 μg/mL
Experimental: Enterococcus faecalis (CCM 2541) was obtained from the Czechoslovac Collection of Microorganisms (Czech Republic) Bacteria were cultured in Anaerobe Basal Broth (Oxoid, France) at 37° C. in anaerobic conditions. Candida albicans (ATCC© 10231™) was cultured in Sabouraud medium (BD, France) supplemented with tetracycline (10 μg/mL) and cefotaxime (10 μg/mL).
An overnight culture of each pathogen was diluted (OD600 nm=0.001) and incubated at 37° C. in 96-plates in the presence of different concentrations of antimicrobial agents. When testing Ca(OH)2, the pH of the solution was measured with by pH meter. (CyberScan pH 510©, Eutech, France). After 24 h incubation, the OD620 nm was evaluated with a spectrophotometer (Multikan EX, ThermoScientific, France). Each assay was done at least in triplicate. For each set of assay, the standard deviation was determined.

Escherichia coli = assay: microbe, parasite or virus in culture; settings: 24 h
Experimental: as §1, §2

Fusobacterium nucleatum = settings: 24 h
Experimental: as §1, §2, §3

Prevotella intermedia = settings: 24 h
Experimental: as §1, §2, §3

[2] = Peptide stability assay towards bacterial virulence factors (supernatants) using HPLC; format: in vitro ADME; settings: 24 hours
Experimental: FIG. 5: Stability of D-CTL and L-CTL towards the virulence factors of different bacterial strains. […] Chromatograms 1 correspond to supernantant only, chromatograms 2 correspond to supernatant and peptide and chromatograms 3 corresponds to peptide only.
Bacteria were then centrifuged for lmin at 13000rpm and the supernatant filtered using a 0,2 μm Millex filter (Merck-Millipore) to remove any residual bacteria.

[3] = 300 μg/mL, 37° C., 24 h, HPLC
Experimental: (§4) The samples were analyzed by HPLC (Dionex, Ultimate 3000, CA USA) using a Nucleosil reverse-phase 300-5C18-colum (4,6×250 mm; particle size: 5 μm; porosity, 300 Å) (Macherey Nagel, France). Two solvents used were: 0.1% (v/v) TFA in water (Solvent A) and 0.09% (v/v) TFA in 70% (v/v) acetonitrile-water (solvent B). Absorbance was measured at 214 nm (A214 nm). The flow rate for elution was 0,7 mL/min with a gradient of solvent B as indicated on the chromatograms.

[4] = saliva from ten healthy volunteers, 24 hours
Experimental: Saliva from ten healthy volunteers was incubated with D-CTL or L-CTL for 24 hours and peptide stability was then assessed by LC-SRM. The analyses were performed on an Agilent 1100 Series HPLC system hyphenated to a QQQ-6490 triple quadrupole (Agilent Technologies). A total of 48 transitions (6 precursors) were monitored in an unscheduled mode within a total cycle time of 3 000 ms.
All samples were centrifuged at 14 000 g during 5 min at +4° C. and then diluted 3 times in water with 0.1% (v/v) HCOOH. For each sample, 2 μL were injected on the LC-SRM system. All separations were carried out on Agilent 1100 Series HPLC system (Agilent Technologies). For each analysis, the sample was loaded into a trapping column ZORBAX 300SB-C18 MicroBore Guard 5 gm, 1.0×17 mm (Agilent Technologies) at 50 μL/min with aqueous solution containing 0.1% (v/v) HCOOH and 2% CH3CN. After 3 min trapping, the column was put on-line with a ZORBAX 300SB-C18 3.5 μm, 0.3×150 mm column (Agilent Technologies). […]
For LC-SRM assay, each peptide was targeted with either an oxidized or non-oxidized state [[sequence]]. […] For each of the 6 precursors, 8 transitions were monitored (48 transitions in total) on a QQQ-6490 triple quadrupole mass spectrometer (Agilent technologies) in unscheduled mode and within a cycle time of 3 000 s. […] The reference value was calculated using the equation given by the supplier. […]

[5] = Ca(OH)2 0,85 g/L pH 8,5, ½ MIC of D-CTL, HPLC
Experimental: The samples were then analyzed by HPLC. Chromatogram 1 corresponds to D-CTL, chromatogram 2 corresponds to D-CTL diluted in a saturated solution of Ca(OH)2 (pH 9). Absorbance is expressed in Unity of Milli-Absorbance (UmA) depending on the time in minutes (min).
Regarding the stability of D-CTL in Ca(OH)2, the peptide was incubated in a buffered Ca(OH)2 solution at 37° C. for 24 h. The pH of the Ca(OH)2 solution was buffered at the same pH than the one determined during the broth dilution assays. As negative controls, D-CTL in water was also incubated at 37° C. for 24 h.
as §4

[6] = 19 μg peptide in 100 μL supernatant, 37° C., 24 h, HPLC
Description: Absence of growth was interpreted as lack of viable microorganism.
Absorbance was monitored at 214 nm and the solvent system consisted of 0.1% (v/v) TFA in water (solvent A) and 0.09% (v/v) TFA in 70% (v/v) acetonitrile-water (solvent B).

[7] = test system: Staphylococcus aureus (MSSA); assay: microbe, parasite or virus in culture
Experimental: as §1, §2, §3

[8] = test system: Staphylococcus aureus (MRSA); assay: microbe, parasite or virus in culture; settings: 24 h
Experimental: as §1, §2, §3

Candida albicans = assay: microbe, parasite or virus in culture; format: cell-based
Experimental: Candida albicans (ATCC© 10231™ distributed by LGC Standards, Molsheim, France) was cultured in Sabouraud medium (Sigma-Aldrich) supplemented with tetracycline (10 μg/mL) and cefotaxime (10 μg/mL) at 37° C. for 24 h. Candida albicans (OD600 nm=0,001) were plated in 96-well plates and treated either with different concentrations of the peptides of interest, and/or with different concentrations of voriconazole (VCZ) (Sigma-Aldrich). As a positive control, cells were treated with 10 μg/mL VCZ. After 24 h incubation, yeast growth was assessed by optical density OD600 nm using a spectrophotometer (Multiscan EX, Shanghai, China).
The MFC is defined as the lowest concentration of peptide able to inhibit 100% of yeasts, and determined using a modified Gompertz model as described in Lambert et Pearson (Lambert and Pearson 2000, J Appl Microbiol, 88(5): 784-790).
The efficiency of the combination D-CTL/VCZ was determined by the calculation of the Fractional inhibitory concentration (FIC) index according to the following formula: FICI=FICD-CTL+FICVCZ. According to EUCAST (European Committee on Antimicrobial Suscpetibility Testing), the effect of the combination is synergistic if FICI≤0,5, additive if 0,5<FICI≤1, indifferent if 1<FICI<2, antagonistic if FICI≥2^40-41. • Results D-CTL Inhibits the Groth of C. albicans

Compound: CC1(C)S[C@@H]2[C@H](NC(=O)[C@H](N)c3ccc(O)cc3)C(=O)N2[C@H]1C(=O)O [Amoxicillin]
- MIC (Parvimonas micra; 24 h): 0.45 µg/mL

Compound: CC1(C)S[C@@H]2[C@H](NC(=O)[C@H](N)c3ccccc3)C(=O)N2[C@H]1C(=O)O [Ampicillin]
- change in MIC over the culture (E. coli (ATCC 25922)): 3 times the MIC

Compound: CO/N=C(\C(=O)N[C@@H]1C(=O)N2C(C(=O)O)=C(COC(C)=O)CS[C@H]12)c1csc(N)n1 [Cefotaxim]
- MIC [1]: 0.09 µg/mL
- change in MIC over the culture (E. coli (ATCC 25922)): 3 times the MIC

Compound: CSCC[C@@H](NC(=O)[C@@H](CO)NC(=O)[C@H](N)CCCNC(=N)N)C(=O)N[C@H](CCCNC(=N)N)C(=O)N[C@H](CC(C)C)C(=O)N[C@H](CO)C(=O)N[C@H](Cc1ccccc1)C(=O)N[C@H](CCCNC(=N)N)C(=O)N[C@H](C)C(=O)N[C@H](CCCNC(=N)N)C(=O)NCC(=O)N[C@H](Cc1ccc(O)cc1)C(=O)NCC(=O)N[C@H](Cc1ccccc1)C(=O)N[C@H](CCCNC(=N)N)C(=O)O [D-CTL] (H-[dR][dS][dM][dR][dL][dS][dF][dR][dA][dR]G[dY]G[dF][dR]-OH; N-terminus and C-terminus assumed)
- MIC on E. faecalis (Enterococcus faecalis): 156 µg/mL (≈ 83.9 µM)
- MIC (Escherichia coli): 8 µg/mL (≈ 4.3 µM)
- MIC (Fusobacterium nucleatum): 22.4 µg/mL
- MIC (Prevotella intermedia): 10 µg/mL
- MIC [1]: 8.4 µg/mL
- degradation in bacterial supernatants ([2]; all bacterial supernatants tested, 37° C.): not degraded
- degradation in the supernatant of E. faecalis [3]: not degraded
- stability in saliva [4]: stable
- stability in a buffered solution of Ca(OH)2 [5]: stable
- stability in the supernatant of Candida albicans [6]: remains stable
- MIC (Parvimonas micra; 24 hours incubation): 23 µg/mL
- MIC ([7]; Staphylococcus aureus (MSSA), 24 hours incubation): 24 µg/mL

Compound: NC[C@H]1O[C@H](O[C@H]2[C@H](O)[C@@H](O[C@H]3O[C@H](CO)[C@@H](O)[C@H](N)[C@H]3O)[C@H](N)C[C@@H]2N)[C@H](O)[C@@H](O)[C@@H]1O [Kanamycin]
- MIC (Escherichia coli; Escherichia coli): 21.6 µg/mL (≈ 44.6 µM)

Compound: CSCC[C@H](NC(=O)[C@H](CO)NC(=O)[C@@H](N)CCCNC(=N)N)C(=O)N[C@@H](CCCNC(=N)N)C(=O)N[C@@H](CC(C)C)C(=O)N[C@@H](CO)C(=O)N[C@@H](Cc1ccccc1)C(=O)N[C@@H](CCCNC(=N)N)C(=O)N[C@@H](C)C(=O)N[C@@H](CCCNC(=N)N)C(=O)NCC(=O)N[C@@H](Cc1ccc(O)cc1)C(=O)NCC(=O)N[C@@H](Cc1ccccc1)C(=O)N[C@@H](CCCNC(=N)N)C(=O)O [L-CTL] (H-RSMRLSFRARGYGFR-OH; N-terminus and C-terminus assumed)
- MIC (Escherichia coli): 75 µg/mL (≈ 40.3 µM)
- MIC (Fusobacterium nucleatum): 125.3 µg/mL
- MIC (Prevotella intermedia): 148.6 µg/mL
- MIC [1]: 150 µg/mL
- degradation by virulence factors ([2]; supernatant of E. coli multiresistant strain): degraded
- degradation by virulence factors ([2]; supernatant of E. coli wild type strain): degraded
- stability in saliva [4]: unlike L-CTL, D-CTL was stable
- stability in the supernatant of Candida albicans [6]: degraded
- MIC (Parvimonas micra; 24 hours incubation): 120 µg/mL
- MIC [8]: 37 µg/mL
- MIC ([7]; 24 h): 40 µg/mL

Compound: COc1cccc(OC)c1C(=O)N[C@@H]1C(=O)N2[C@@H]1SC(C)(C)[C@@H]2C(=O)O [Methicillin]
- MIC ([7]; Staphylococcus aureus, MSSA, 24 h): 1.2 µg/mL

Compound: C[C@@H](c1ncncc1F)[C@](O)(Cn1cncn1)c1ccc(F)cc1F [VCZ, voriconazole]
- MFC (Candida albicans; Candida albicans, 24 h, modified Gompertz model, read-out: minimal fungicidal concentration (MFC)): 0.07 µg/mL
- FIC (Candida albicans; combination D-CTL/VCZ on Candida albicans): 0.25

Compound: CN[C@H](CC(C)C)C(=O)N[C@H]1C(=O)N[C@@H](CC(N)=O)C(=O)N[C@H]2C(=O)N[C@H]3C(=O)N[C@H](C(=O)N[C@H](C(=O)O)c4cc(O)cc(O)c4-c4cc3ccc4O)[C@H](O)c3ccc(c(Cl)c3)Oc3cc2cc(c3O[C@@H]2O[C@H](CO)[C@@H](O)[C@H](O)[C@H]2O[C@H]2C[C@](C)(N)[C@H](O)[C@H](C)O2)Oc2ccc(cc2Cl)[C@H]1O [Vancomycin]
- MIC ([8]; Staphylococcus aureus, MRSA): 0.8 µg/mL

Compound: RILSILRHQNLLKELQDLAL [CHR, bovine chromofungin bCgA47-70]
- bacterial growth inhibition of E. faecalis (Enterococcus faecalis): no antimicrobial activity

Compound: RSMRLSFRARGYGFRGPGLQL [CAT]
- bacterial growth inhibition of E. faecalis (Enterococcus faecalis): no antimicrobial activity
